Results from paper PMC4549746, “Zearalenone in the Intestinal Tissues of Immature Gilts Exposed per os to Mycotoxins” (Toxins, 2015).
Entries after “also recorded” stand apart in the source; their conditions may differ.

Experiments:
[1] = ZEN concentrations and carryover factor in intestinal tissues and liver of pre-pubertal gilts exposed per os (HPLC); type: in vivo; conditions: gilts given ZEN 40 μg/kg BW daily per os, 42 days; detection limits 0.003 µg·g^−1 α-ZEL, 0.002 µg·g^−1 β-ZEL
Procedure: The animals were divided into an experimental group (E, n = 18) and a control group (C, n = 21). Group E animals were orally administered ZEN at 40 μg/kg BW. Group C pigs were fed a placebo. The animals were fed complete diets in a restricted feeding regimen (Table 1). The daily dose of ZEN (40 µg/kg BW) was administered to each animal individually, which corresponds to exposure to 957–1014 µg ZEN/kg of a complete diet, depending on daily feed intake. Zearalenone was biosynthesized, purified and standardized by the Department of Chemistry of the Poznań University of Life Sciences. The experiment covered a period of 42 days. The mycotoxin was administered per os daily, in gelatine capsules before the morning feeding. The ZEN dose was adjusted to the body weight of the experimental animals. The mycotoxin was administered in capsules to prevent problems associated with uneven feed intake. Mycotoxin samples were diluted in 300 μL of 96% ethyl alcohol (96% ethyl alcohol, SWW 2442-90, Polskie Odczynniki Chemiczne SA, Gliwice, Poland) to the required dose level (based on body weight). Final solutions were stored at room temperature for 12 h to evaporate the solvent. The animals were weighed every 7 days to update mycotoxin doses for each gilt. Three animals from the experimental group and the control group each were sacrificed on Days 1, 7, 14, 21, 28, 35 and 42 (a total of 6 gilts in each week of exposure), excluding day 1, when only 3 control group animals were scarified. Every week, tissue samples were collected from the porcine gastrointestinal tract (duodenum, first and middle sections, jejunum, ileum, cecum, ascending colon, transverse colon, descending colon, middle section, and the liver, left lobe). Tissue samples were collected from the whole intestinal cross-sections.
Post-mortem tissue samples were collected from the duodenum, jejunum, ileum, cecum, ascending colon, transverse colon, descending colon and the liver after rinsing with phosphate buffer. Pure tissues were stored at −80 °C until shredding and extraction.
Tissue samples (2 g) were homogenized with 9 cm^3 of methanol for 4 min; they were transferred to centrifuge tubes with a minimal amount of the sediment, and the remainder was combined with 5 cm^3 of methanol and repeatedly homogenized. The extracts were combined and centrifuged for 10 min. The supernatant was transferred to a graduated test tube; its volume was read from the scale, and it was evaporated under a stream of nitrogen at a temperature of 60 °C to 0.1–0.2 cm^3 of water. The evaporated product was combined with 2 cm^3 of deionized water, 2 cm^3 of 0.2 M sodium acetate and 500 µL of […] solution. After 16 h of incubation at 37 °C, the reaction was stopped by adding 0.5 cm^3 of acetonitrile. The mixture was quantitatively transferred to a centrifuge tube; it was combined with 10 cm^3 of deionized water and centrifuged for 10 min at 3500 rpm. The supernatant was applied to the Zearala-Test™ column at the rate of 1–2 drops per second. Mycotoxins were eluted from the column with 1.5 mL of methanol; the solvent was evaporated, and the residue was reconstituted with 1 mL of methanol for HPLC analysis.
The concentrations of ZEN and its derivatives were determined by HPLC with the use of the Waters 2695 Separations Module, Waters 2475 Multi λ Fluorescence Detector and Waters 2996 Array Detector. Excitation and emission wavelengths were 274 and 440 nm, respectively. The reverse-phase column was C-18 Nova Pak (3.9 × 150 mm), and the mobile phase was acetonitrile-water-methanol (46:46:8, v/v/v) at a flow rate of 0.5 mL·min^−1. The mycotoxins were quantified by measuring the […] of the peaks based on the relevant calibration curves (correlation coefficient of 0.9996 for ZEN, 0.9989 for α-ZEL and 0.9976 for β-ZEL). Detection limits were determined at 0.001 µg·g^−1 for ZEN, 0.003 µg·g^−1 for α-ZEL and 0.002 µg·g^−1 for β-ZEL. […]

[2] = relative to parent compound ZEN; cited from earlier work
[3] = set-up: method as in PMID 15972077; conditions: animal feed naturally contaminated with ZEN and α-ZEL; cited from earlier work

Q: What does the source list for `C[C@H]1CCC[C@H](O)CCC/C=C/c2cc(O)cc(O)c2C(=O)O1` [α-ZEL, α-zearalenol]?
A: concentrations of ZEN metabolites in the digestive tract and the liver [1]: below the sensitivity of the method; estrogenic activity in comparison to ZEN [2]: three-fold or even four-fold higher; also recorded: three- to four-fold higher; absorbed from the duodenum [3]: 65%

Q: Which “concentrations of ZEN metabolites in the digestive tract and the liver” value [1] does the source give for `C[C@H]1CCC[C@@H](O)CCC/C=C/c2cc(O)cc(O)c2C(=O)O1` [β-ZEL, β-zearalenol] here?
A: below the sensitivity of the method
